Assay results reported in patent US10639382B2, “Method for treating leukemia” (National Guard Health Affairs, priority 2017, dated 2020).
Counter-ions that a name gives are not always drawn. Starred links: 1 amine or outer side, 2 acyl side, 3 side chain; linkers in the order of their positions; H or OH if unused. Positions of bridges follow the written chain, without caps; N, C: chain ends. Non-standard residues stand in square brackets, D forms with d. Residues, ends and D or L forms follow the SMILES beside them. Chains are numbered I, II in the order given. Actinocin(9to1) = Cc1c2oc3c(C)ccc(C(=O)[*:1])c3nc-2c(C(=O)[*:2])c(N)c1=O; NMeV = CN[C@H](C(=O)O)C(C)C; Sar = CNCC(=O)O

Tests used:
Type in all cases: cell-based, human
[1] = test system: PBMCs from AML patients; assay: Primary screening of FDA approved drug library, TitreGlo/CellTiter-Glo cell viability, PBMCs from AML patients; conditions: compound 10 uM, PBMCs from AML patients, average over patients, relative to high control (0%) and no-cell low control (100%); for inhibition at 10 µM: Homo sapiens, PBMC, read-out: % Inhibition, AML Average
Experimental: (§1) Whole blood was taken from experimental group patients and control group patients. The collected blood was transferred to EDTA tubes with a 5 mL pipette and a pipette aid and then to each EDTA tubes corresponding 50 ml centrifuge tubes. All the blood from one patient was placed into 1 tube (50 mL) and an equal volume of PBS was added to the 50 mL centrifuge tube. The sample was then mixed by either inverting the tube or pipetting up & down. The blood was transferred into tow 50 mL leucosep tube and centrifuged at room temperature (18-20° C.) for 15 minutes at 800×g with the brake turned off and acceleration at 2/deceleration at zero. After centrifugation, the white cell interface (buffy coat) was removed by pasture pipette and transferred to the new appropriately labelled 50 ml centrifuge tube. 25 mL PBS was added to the white cell interface (buffy coat) and the mix was centrifuged for 10 minutes at room temperature at 400×g with the brake off and acceleration at 4 & deceleration at 2. The supernatant was discarded from the pellet carefully in an appropriate manner. The pellet was washed another time with 20 mL by centrifugation for 5 minutes as above. The pellet was re-suspended in 5 mL and cells were counted using V-Cell. The cells were then either used directly as fresh for screening or frozen in liquid nitrogen in 10% DMSO/RPMPI media until use.
(§2) The assay used for TitreGlo (Promega) to measure cell viability based on the ATP production. […] The assay was developed in a 384-well plate with 2500 cell/well in 50 uL total volume. Alternatively, the assay could be developed in a 96-well plate with 10,000 cells/well. […] Z′ as a statistics factor was calculated as follows:
(§3) Each compound from the ENZO FDA SCREEN-WELL® FDA approved drug library V2 (0.10 μl in 100% DMSO) was transferred to white, 384-well, PS, Cellstar plates (Greiner Bio-One) using the Echo® Liquid Handler (Labcyte Inc.). Each plate contained one column for the High/Low Controls. The Low Control (1% DMSO v/v in column 23, no cells) and the High Control (final 1% DMSO v/v in column 24, with cells) were employed to calculate the Z′ for each assay plate. […] At 24 h post seeding, baseline growth was assessed using a control plate and CellTiter-Glo (CTG) reagent (Promega Corporation). Briefly, 20 μL/well of CTG detection mix was added and plates were read using an EnVision Multimode plate reader (PerkinElmer) after 10 min incubation in the dark. The raw luminescence signal was normalized in ActivityBase XE with outliers in control wells eliminated according to the 3-sigma method to yield percentage of cell viability by using the High Control (HC) containing cells in 1% DMSO v/v (Carl Roth) and the Low Control containing 1% DMSO v/v (Carl Roth). All Medium-Throughput Screening experiments were performed in duplicate for each patient. […] The raw luminescence signal was processed using Graph Pad Prism (Graph Pad Software Inc.) with outliers in control wells eliminated according to the 3-sigma method. The dose-response curves were analyzed using a 4 parameter sigmoidal fit to obtain plausible results in the case non-sigmoidal dose-response curves.
(§4) The Screen-Well FDA approved drug library was screened, which contains 780 approved drugs. […] The final DMSO concentration in the assay plate was 0.1% of total volume. […] The average of all four control samples was then calculated and used to determine the positive “hits” in patients' samples.
(§5) Each average patient samples were plotted against average of the control samples to identify the positive hits.

[2] = test system: PBMCs from CLL patients; assay: Primary screening of FDA approved drug library, TitreGlo/CellTiter-Glo cell viability, PBMCs from CLL patients; conditions: compound 10 uM, PBMCs from CLL patients, average over patients, relative to high control (0%) and no-cell low control (100%); for inhibition at 10 µM: Homo sapiens, PBMC, read-out: % Inhibition, CLL Average
Experimental: as §1, §2, §3, §4, §5

[3] = test system: PBMCs from CML patients; assay: Primary screening of FDA approved drug library, TitreGlo/CellTiter-Glo cell viability, PBMCs from CML patients; conditions: compound 10 uM, PBMCs from CML patients, average over patients, relative to high control (0%) and no-cell low control (100%); for inhibition at 10 µM: Homo sapiens, PBMC, read-out: % Inhibition, CML Average
Experimental: as §1, §2, §3, §5
Samples from 4 patients were screened against the FDA approved drug library where the Negative Control (High control) contained cells treated with DMSO and the Positive Control (Low control) were based using no cells. The screening was carried out in 96 well plates. The raw luminescence counts were normalized and the % Inhibition was calculated relative to the high control (0% Inhibition) and the low control (100% Inhibition).

[4] = test system: PBMCs from ALL patients; assay: Primary screening of FDA approved drug library, TitreGlo/CellTiter-Glo cell viability, PBMCs from ALL patients; conditions: compound 10 uM, PBMCs from ALL patients, average over patients, relative to high control (0%) and no-cell low control (100%); for inhibition at 10 µM: Homo sapiens, PBMC, read-out: % Inhibition, ALL Average
Experimental: as §1, §2, §3, §4, §5

**Q.** NC(N)=Nc1nc(CSCCC(N)=NS(N)(=O)=O)cs1 [Famotidine] was tested. Which inhibition at 10 µM [1] did it give?
**A.** Its inhibition at 10 µM is 5.3%.

**Q.** What about the inhibition at 10 µM [2] of the same compound?
**A.** The inhibition at 10 µM was 39.2%.

**Q.** What about the inhibition at 10 µM [3] of the same compound?
**A.** The inhibition at 10 µM was 17.1%.

**Q.** What about the inhibition at 10 µM [4] of the same compound?
**A.** The inhibition at 10 µM was 13.4%.

**Q.** C[C@@H](NCCCc1cccc(C(F)(F)F)c1)c1cccc2ccccc12 [Cinacalcet HCl] was tested. Which inhibition at 10 µM [1] did it give?
**A.** The inhibition at 10 µM was 43.2%.

**Q.** What about the inhibition at 10 µM [2] of the same compound?
**A.** Its inhibition at 10 µM is 28.6%.

**Q.** What about the inhibition at 10 µM [3] of the same compound?
**A.** Its inhibition at 10 µM is 63.3%.

**Q.** And the inhibition at 10 µM [4]?
**A.** Its inhibition at 10 µM is 41.9%.

**Q.** COc1cc(NC(C)CCCN)c2ncccc2c1 (stereo not drawn) [Primaquine Phosphate] was tested. Which inhibition at 10 µM [1] did it give?
**A.** Its inhibition at 10 µM is 19.8%.

**Q.** What about the inhibition at 10 µM [2] of the same compound?
**A.** Its inhibition at 10 µM is 16.9%.

**Q.** And the inhibition at 10 µM [3]?
**A.** Its inhibition at 10 µM is 40.9%.

**Q.** And the inhibition at 10 µM [4]?
**A.** Its inhibition at 10 µM is 54.9%.

**Q.** Which inhibition at 10 µM [1] does the source give for CS(=O)(=O)CCNCc1ccc(-c2ccc3ncnc(Nc4ccc(OCc5cccc(F)c5)c(Cl)c4)c3c2)o1 [Lapatinib Ditosylate] here?
**A.** The inhibition at 10 µM was -76.1%.

**Q.** What about the inhibition at 10 µM [2] of the same compound?
**A.** The inhibition at 10 µM was 6.9%.

**Q.** What about the inhibition at 10 µM [3] of the same compound?
**A.** Its inhibition at 10 µM is 76.6%.

**Q.** What about the inhibition at 10 µM [4] of the same compound?
**A.** The inhibition at 10 µM was 35.1%.

**Q.** Which results are given for Nc1nc(F)nc2c1ncn2[C@@H]1O[C@H](COP(=O)(O)O)[C@@H](O)[C@@H]1O [Fludarabine Phosphate]?
**A.** inhibition at 10 µM [1]: 21.8%; inhibition at 10 µM [2]: 17.3%; inhibition at 10 µM [3]: 19.1%; inhibition at 10 µM [4]: 53.9%

**Q.** For COc1cccc2c1C(=O)c1c(O)c3c(c(O)c1C2=O)C[C@@](O)(C(C)=O)C[C@@H]3O[C@H]1C[C@H](N)[C@H](O)[C@H](C)O1 [Daunorubicin HCl], which inhibition at 10 µM [1] is on record?
**A.** Its inhibition at 10 µM is 64%.

**Q.** What about the inhibition at 10 µM [2] of the same compound?
**A.** Its inhibition at 10 µM is 65.5%.

**Q.** And the inhibition at 10 µM [3]?
**A.** Its inhibition at 10 µM is 67.6%.

**Q.** And the inhibition at 10 µM [4]?
**A.** The inhibition at 10 µM was 78.4%.

**Q.** How did the inhibition at 10 µM [1] turn out when CC(C)(C)C(=O)OCOP(=O)(COCCn1cnc2c(N)ncnc21)OCOC(=O)C(C)(C)C [Adcfovir Dipivoxil] was run?
**A.** The inhibition at 10 µM was 72.8%.

**Q.** And the inhibition at 10 µM [2]?
**A.** The inhibition at 10 µM was 43.9%.

**Q.** And the inhibition at 10 µM [3]?
**A.** The inhibition at 10 µM was 63.7%.

**Q.** And the inhibition at 10 µM [4]?
**A.** The inhibition at 10 µM was 96%.

**Q.** For CC(=O)[C@]1(O)Cc2c(O)c3c(c(O)c2[C@@H](O[C@H]2C[C@H](N)[C@H](O)[C@H](C)O2)C1)C(=O)c1ccccc1C3=O [Idarubicin HCl], which inhibition at 10 µM [1] is on record?
**A.** The inhibition at 10 µM was 79%.

**Q.** What about the inhibition at 10 µM [2] of the same compound?
**A.** The inhibition at 10 µM was 54.8%.

**Q.** And the inhibition at 10 µM [3]?
**A.** The inhibition at 10 µM was 43.5%.

**Q.** What about the inhibition at 10 µM [4] of the same compound?
**A.** The inhibition at 10 µM was 73.5%.

**Q.** With O=C(NCC1CCCCN1)c1cc(OCC(F)(F)F)ccc1OCC(F)(F)F (stereo not drawn) [Flecainide Acetate] as the compound, how does the inhibition at 10 µM [1] read?
**A.** Its inhibition at 10 µM is 13%.

**Q.** What about the inhibition at 10 µM [2] of the same compound?
**A.** The inhibition at 10 µM was 50.2%.

**Q.** And the inhibition at 10 µM [3]?
**A.** Its inhibition at 10 µM is -1%.

**Q.** And the inhibition at 10 µM [4]?
**A.** The inhibition at 10 µM was -18.3%.

**Q.** COc1cccc2c1C(=O)c1c(O)c3c(c(O)c1C2=O)C[C@@](O)(C(=O)CO)C[C@@H]3O[C@H]1C[C@H](N)[C@H](O)[C@H](C)O1 [Doxorubicin HCl] was tested. Which inhibition at 10 µM [1] did it give?
**A.** Its inhibition at 10 µM is 73.6%.

**Q.** And the inhibition at 10 µM [2]?
**A.** The inhibition at 10 µM was 67.2%.

**Q.** And the inhibition at 10 µM [3]?
**A.** Its inhibition at 10 µM is 36.7%.

**Q.** What about the inhibition at 10 µM [4] of the same compound?
**A.** Its inhibition at 10 µM is 72.6%.

**Q.** What does the source list for Clc1ccc(CCC(Cn2ccnc2)Sc2c(Cl)cccc2Cl)cc1 (stereo not drawn) [Butoconazole Nitrate]?
**A.** inhibition at 10 µM [1]: 46.6%; inhibition at 10 µM [2]: 44.1%; inhibition at 10 µM [3]: 58.5%; inhibition at 10 µM [4]: 40.7%

**Q.** Which inhibition at 10 µM [1] does the source give for CN(C)CCCN1c2ccccc2CCc2ccccc21 [Imipramine HCl] here?
**A.** The inhibition at 10 µM was 1.9%.

**Q.** And the inhibition at 10 µM [3]?
**A.** Its inhibition at 10 µM is 13.7%.

**Q.** What about the inhibition at 10 µM [4] of the same compound?
**A.** Its inhibition at 10 µM is -6%.

**Q.** Which results are given for CO[C@H]1/C=C/O[C@@]2(C)Oc3c(C)c(O)c4c(O)c(c(/C=N/N5CCN(C6CCCC6)CC5)c(O)c4c3C2=O)NC(=O)/C(C)=C\C=C\[C@H](C)[C@H](O)[C@@H](C)[C@@H](O)[C@@H](C)[C@H](OC(C)=O)[C@@H]1C [Rifapentine]?
**A.** inhibition at 10 µM [1]: -3.2%; inhibition at 10 µM [2]: 12.3%; inhibition at 10 µM [3]: 76.5%

**Q.** With CO[C@H]1/C=C/O[C@@]2(C)Oc3c(C)c(O)c4c(O)c(c5c(nc6cc(C)ccn65)c4c3C2=O)NC(=O)/C(C)=C\C=C\[C@H](C)[C@H](O)[C@@H](C)[C@@H](O)[C@@H](C)[C@H](OC(C)=O)[C@@H]1C [Rifaximin] as the compound, how does the inhibition at 10 µM [1] read?
**A.** Its inhibition at 10 µM is -42.8%.

**Q.** And the inhibition at 10 µM [2]?
**A.** Its inhibition at 10 µM is -60.2%.

**Q.** What about the inhibition at 10 µM [3] of the same compound?
**A.** The inhibition at 10 µM was 42.3%.

**Q.** What about the inhibition at 10 µM [4] of the same compound?
**A.** The inhibition at 10 µM was -45.4%.

**Q.** How did the inhibition at 10 µM [1] turn out when Cc1c2oc3c(C)ccc(C(=O)N[C@@H]4C(=O)N[C@H](C(C)C)C(=O)N5CCC[C@H]5C(=O)N(C)CC(=O)N(C)[C@@H](C(C)C)C(=O)O[C@@H]4C)c3nc-2c(C(=O)N[C@@H]2C(=O)N[C@H](C(C)C)C(=O)N3CCC[C@H]3C(=O)N(C)CC(=O)N(C)[C@@H](C(C)C)C(=O)O[C@@H]2C)c(N)c1=O [Dactinomycin (=Actinomycin D), Dactinomycin] (I: T[dV]P[Sar][NMeV] / II: T[dV]P[Sar][NMeV]; ester I:1-I:C, II:1-II:C; linker I:N-II:N via Actinocin(9to1)) was run?
**A.** Its inhibition at 10 µM is 60.4%.

**Q.** What about the inhibition at 10 µM [2] of the same compound?
**A.** Its inhibition at 10 µM is 42.9%.

**Q.** What about the inhibition at 10 µM [3] of the same compound?
**A.** The inhibition at 10 µM was 24.4%.

**Q.** What about the inhibition at 10 µM [4] of the same compound?
**A.** Its inhibition at 10 µM is 66.5%.

**Q.** Which results are given for CC(=O)OC[C@H]1O[C@@H]([S-])[C@H](OC(C)=O)[C@@H](OC(C)=O)[C@@H]1OC(C)=O.CCP(CC)CC.[Au+] [Auranofin]?
**A.** % Inhibition, AML Average [1]: 96.7%; % Inhibition, CLL Average [2]: 96.0%; % Inhibition, CML Average [3]: 94.9%; % Inhibition, ALL Average [4]: 102.9%

**Q.** What does the source list for Cc1ncc([N+](=O)[O-])n1CCO [Metronidazole]?
**A.** inhibition at 10 µM [1]: -25.2%; inhibition at 10 µM [2]: 31%; inhibition at 10 µM [3]: -17.3%; inhibition at 10 µM [4]: -23.9%
